Test results taken from PMC3407203, “Bisphenol A Binds to the Local Anesthetic Receptor Site to Block the Human Cardiac Sodium Channel” (PLoS ONE, 2012).

Assays:
F1760A mutant of hNav1.5 [1] = target: T1, F1760A mutant of hNav1.5 (Homo sapiens, UniProt Q14524, F1760A); experiment: Use-dependent current decline of F1760A mutant hNav1.5, repetitive pulsing, whole-cell patch clamp; type: cell-based
T1 construct: expressed in transfected cells; host or cells: HEK293
Experimental: The plasmid DNA of hNav1.5 in pTracer was used (gift from Dirk Isbrandt, Hamburg, Germany) for mutagenesis of […] kit, Qiagen GmbH, Hilden) and was performed according to the instructions of the manufacturer. HEK293 cells were maintained in Dulbecco's Modified Eagle's Medium (Invitrogen, Carlsbad, CA), supplemented with 10% fetal bovine serum, 100 U/ml penicillin and 100 μg/ml streptomycin, and incubated at 37°C with 5% CO2. Briefly, HEK293 cells were plated at low density on 35 mm dishes 24 hours before transfection. […] Electrophysiology was performed 18-28 hours following transfections. Only cells with robust green fluorescence were included in the analysis.

hNav1.5 [2] = target: T2, hNav1.5 (Homo sapiens, UniProt Q14524); experiment: Tonic block of hNav1.5 currents, whole-cell patch clamp in transfected HEK293 cells; type: cell-based; settings: for Kd: test pulse −10 mV at 0.2 Hz, room temperature, read-out: Kd of tonic block (Hill fit)
T2 construct: expressed in transfected cells; host or cells: HEK293
Experimental: (§1) The plasmid DNA of hNav1.5 in pTracer was used (gift from Dirk Isbrandt, Hamburg, Germany) for mutagenesis of F1760A (Qickchange XL kit, Qiagen GmbH, Hilden) and was performed according to the instructions of the manufacturer. HEK293 cells were maintained in Dulbecco’s Modified Eagle’s Medium (Invitrogen, Carlsbad, CA), supplemented with 10% fetal bovine serum, 100 U/ml penicillin and 100 µg/ml streptomycin, and incubated at 37°C with 5% CO2. […] Cells were transfected at 40–70% confluency using Nanofectin (PAA Laboratories GmbH, Pasching, Austria), according to manufacturer’s instructions, with 1 µg of hNav1.5 or the F1760A mutant of hNav1.5 and 0.5 µg EGFP, and distributed onto several 35 mm dishes on the following day. […] Only cells with robust green fluorescence were included in the analysis.
Whole-cell patch-clamp experiments were performed at room temperature using an Axopatch 200A operated by Clampex 9.2 software (Axon Instruments, Molecular Devices, USA) and 1–2 MΩ glass electrodes (WPI Inc, USA). […] All reagents were purchased from Sigma Chemical Company (Deisenhofen, Germany) unless otherwise noted. The tip of a constantly running gravity-driven perfusion system was positioned close to the recorded cell and drugs were applied by switching to bath solution containing the indicated concentration. […] Capacitive transients were cancelled, and series resistances (<5 MΩ) were compensated by 65–95%. Leak currents were subtracted digitally online using the P/4 procedure following the test pulses except for recordings of use dependency, where no leak correction was used. Currents were filtered at 10 kHz and sampled at 100 kHz, except for steady-state fast inactivation, where a sampling rate of 20 kHz was used.Recordings were obtained 4 min after establishing the whole-cell configuration. […] The block occurring 15 pulses after BPA or ETOH application (Ipost/Ipre = [drawing 1] ) was used as indicator for tonic block. The resulting single dose response data were fitted with a Hill function using a Levenberg-Marquard algorithm of Origin’s non linear curve fitter, where start and end were set to 0 and 1, respectively.

[3] = set-up: method as in PMID 12387626; settings: cited from earlier work
F1760A mutant of hNav1.5 [4] = target: T1, F1760A mutant of hNav1.5; experiment: Tonic block of F1760A mutant hNav1.5 currents, whole-cell patch clamp in transfected HEK293 cells; type: cell-based; settings: Vhold −120 mV, tested every 5 s, read-out: Kd of tonic block (Hill fit)
Experimental: as §1
Whole-cell patch-clamp experiments were performed at room temperature using an Axopatch 200A operated by Clampex 9.2 software (Axon Instruments, Molecular Devices, USA) and 1–2 MΩ glass electrodes (WPI Inc, USA). […] All reagents were purchased from Sigma Chemical Company (Deisenhofen, Germany) unless otherwise noted. The tip of a constantly running gravity-driven perfusion system was positioned close to the recorded cell and drugs were applied by switching to bath solution containing the indicated concentration. […]

hNav1.5 [5] = target: T2, hNav1.5; experiment: Use-dependent current decline of hNav1.5, repetitive pulsing, whole-cell patch clamp; type: cell-based; settings: for use-dependent block: 30 µM, WT hNav1.5, Vhold −120 mV
Description: […] Current responses were normalized to the first recorded pulse and the available currents at the 30th pulses were compared.

hNav1.5 [6] = target: T2, hNav1.5; experiment: Activation and current decay of hNav1.5, whole-cell patch clamp; type: cell-based; settings: post 100 µM BPA
Experimental: . The sodium channel conductance GNa was calculated using the following equation: […]
where INa is the amplitude of the current at the voltage Vm, and Erev is the reversal potential for sodium, which was determined for each cell individually. Activation curves were derived by plotting normalized GNa as a function of test potential and fitted using the Boltzmann equation: […]
where GNa,Max is the maximum conductance, Vhalf is the membrane potential at half-maximal activation, Vm is the membrane voltage and k is the slope factor.
Decay time constants were determined by fitting current recordings at test pulses to −10 mV for 40 ms from peak with a single exponential fit.

hNav1.5 [7] = target: T2, hNav1.5; experiment: Dissociation constants for resting (Kr) and inactivated (Ki) hNav1.5 channels, whole-cell patch clamp; type: cell-based; settings: determined with 30 µM drug; read-out: Kr, dissociation constant for resting channels
Experimental: The dissociation constant for the resting channels, Kr, of the applied drugs were determined according to [17], [18]: with [drug] being the drug concentration present and Brest being the detected block of resting channels. […] This potential was determined for each cell individually by the above described protocol for steady-state fast inactivation.

[8] = cited from earlier work
hNav1.5 [9] = target: T2, hNav1.5; experiment: Voltage dependence of steady-state fast inactivation of hNav1.5, whole-cell patch clamp; type: cell-based
Experimental: Whole-cell patch-clamp experiments were performed at room temperature using an Axopatch 200A operated by Clampex 9.2 software (Axon Instruments, Molecular Devices, USA) and 1–2 MΩ glass electrodes (WPI Inc, USA). […] All reagents were purchased from Sigma Chemical Company (Deisenhofen, Germany) unless otherwise noted. The tip of a constantly running gravity-driven perfusion system was positioned close to the recorded cell and drugs were applied by switching to bath solution containing the indicated concentration. […] Capacitive transients were cancelled, and series resistances (<5 MΩ) were compensated by 65–95%. Leak currents were subtracted digitally online using the P/4 procedure following the test pulses except for recordings of use dependency, where no leak correction was used. […] Fitting parameters (Kd) are given as best fit ± standard error.

T1 sequence (Q14524 whole entry F1760A): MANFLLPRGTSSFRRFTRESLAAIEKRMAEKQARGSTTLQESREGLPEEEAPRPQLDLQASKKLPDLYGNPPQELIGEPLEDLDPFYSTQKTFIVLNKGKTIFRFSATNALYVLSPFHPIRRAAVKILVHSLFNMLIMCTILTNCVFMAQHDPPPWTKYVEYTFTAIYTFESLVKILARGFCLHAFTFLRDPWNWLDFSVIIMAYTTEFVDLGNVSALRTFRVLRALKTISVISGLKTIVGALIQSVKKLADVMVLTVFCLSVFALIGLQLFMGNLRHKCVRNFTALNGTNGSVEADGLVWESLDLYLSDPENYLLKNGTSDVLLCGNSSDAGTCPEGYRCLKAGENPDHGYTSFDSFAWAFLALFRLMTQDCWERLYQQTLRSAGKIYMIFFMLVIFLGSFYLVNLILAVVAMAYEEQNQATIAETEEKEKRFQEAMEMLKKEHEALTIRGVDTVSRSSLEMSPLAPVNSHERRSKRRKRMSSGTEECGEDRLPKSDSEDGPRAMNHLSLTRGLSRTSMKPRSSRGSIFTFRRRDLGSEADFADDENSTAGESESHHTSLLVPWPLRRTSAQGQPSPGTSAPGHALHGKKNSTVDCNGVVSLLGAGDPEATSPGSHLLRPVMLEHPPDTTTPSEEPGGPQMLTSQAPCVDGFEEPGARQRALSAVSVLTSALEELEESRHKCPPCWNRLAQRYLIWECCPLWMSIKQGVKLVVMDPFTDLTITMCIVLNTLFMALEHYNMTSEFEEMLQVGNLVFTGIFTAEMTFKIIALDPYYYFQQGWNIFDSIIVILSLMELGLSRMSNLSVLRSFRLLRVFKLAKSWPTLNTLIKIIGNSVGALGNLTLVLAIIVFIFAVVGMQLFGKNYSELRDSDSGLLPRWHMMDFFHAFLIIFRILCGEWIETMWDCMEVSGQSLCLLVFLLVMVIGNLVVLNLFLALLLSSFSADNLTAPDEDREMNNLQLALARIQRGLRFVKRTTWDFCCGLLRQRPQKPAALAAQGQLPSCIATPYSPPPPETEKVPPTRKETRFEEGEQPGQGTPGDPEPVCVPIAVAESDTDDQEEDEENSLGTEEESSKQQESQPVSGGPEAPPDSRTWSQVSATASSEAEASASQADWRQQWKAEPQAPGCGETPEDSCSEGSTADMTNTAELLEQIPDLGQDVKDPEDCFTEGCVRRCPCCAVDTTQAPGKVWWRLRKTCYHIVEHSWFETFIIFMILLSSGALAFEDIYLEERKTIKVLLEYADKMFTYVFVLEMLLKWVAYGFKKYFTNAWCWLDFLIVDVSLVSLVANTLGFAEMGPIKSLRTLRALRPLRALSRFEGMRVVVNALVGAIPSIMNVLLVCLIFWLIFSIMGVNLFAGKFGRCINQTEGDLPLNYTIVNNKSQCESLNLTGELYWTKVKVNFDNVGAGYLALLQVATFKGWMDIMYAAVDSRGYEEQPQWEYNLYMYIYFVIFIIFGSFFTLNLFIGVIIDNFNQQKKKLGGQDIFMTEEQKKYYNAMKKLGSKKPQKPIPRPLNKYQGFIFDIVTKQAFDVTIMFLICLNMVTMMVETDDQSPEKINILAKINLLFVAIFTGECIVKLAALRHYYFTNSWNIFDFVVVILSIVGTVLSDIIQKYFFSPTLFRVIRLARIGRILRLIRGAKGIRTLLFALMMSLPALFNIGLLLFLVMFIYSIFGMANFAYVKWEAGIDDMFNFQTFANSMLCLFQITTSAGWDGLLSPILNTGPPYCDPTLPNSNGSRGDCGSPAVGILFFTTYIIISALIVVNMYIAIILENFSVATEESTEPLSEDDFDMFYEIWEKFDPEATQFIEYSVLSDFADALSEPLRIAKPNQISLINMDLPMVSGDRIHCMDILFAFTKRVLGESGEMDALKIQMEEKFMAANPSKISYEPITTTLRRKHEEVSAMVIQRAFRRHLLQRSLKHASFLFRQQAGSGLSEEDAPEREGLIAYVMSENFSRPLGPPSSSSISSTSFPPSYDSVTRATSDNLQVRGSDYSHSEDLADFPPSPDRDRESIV
T2 sequence (Q14524 whole entry): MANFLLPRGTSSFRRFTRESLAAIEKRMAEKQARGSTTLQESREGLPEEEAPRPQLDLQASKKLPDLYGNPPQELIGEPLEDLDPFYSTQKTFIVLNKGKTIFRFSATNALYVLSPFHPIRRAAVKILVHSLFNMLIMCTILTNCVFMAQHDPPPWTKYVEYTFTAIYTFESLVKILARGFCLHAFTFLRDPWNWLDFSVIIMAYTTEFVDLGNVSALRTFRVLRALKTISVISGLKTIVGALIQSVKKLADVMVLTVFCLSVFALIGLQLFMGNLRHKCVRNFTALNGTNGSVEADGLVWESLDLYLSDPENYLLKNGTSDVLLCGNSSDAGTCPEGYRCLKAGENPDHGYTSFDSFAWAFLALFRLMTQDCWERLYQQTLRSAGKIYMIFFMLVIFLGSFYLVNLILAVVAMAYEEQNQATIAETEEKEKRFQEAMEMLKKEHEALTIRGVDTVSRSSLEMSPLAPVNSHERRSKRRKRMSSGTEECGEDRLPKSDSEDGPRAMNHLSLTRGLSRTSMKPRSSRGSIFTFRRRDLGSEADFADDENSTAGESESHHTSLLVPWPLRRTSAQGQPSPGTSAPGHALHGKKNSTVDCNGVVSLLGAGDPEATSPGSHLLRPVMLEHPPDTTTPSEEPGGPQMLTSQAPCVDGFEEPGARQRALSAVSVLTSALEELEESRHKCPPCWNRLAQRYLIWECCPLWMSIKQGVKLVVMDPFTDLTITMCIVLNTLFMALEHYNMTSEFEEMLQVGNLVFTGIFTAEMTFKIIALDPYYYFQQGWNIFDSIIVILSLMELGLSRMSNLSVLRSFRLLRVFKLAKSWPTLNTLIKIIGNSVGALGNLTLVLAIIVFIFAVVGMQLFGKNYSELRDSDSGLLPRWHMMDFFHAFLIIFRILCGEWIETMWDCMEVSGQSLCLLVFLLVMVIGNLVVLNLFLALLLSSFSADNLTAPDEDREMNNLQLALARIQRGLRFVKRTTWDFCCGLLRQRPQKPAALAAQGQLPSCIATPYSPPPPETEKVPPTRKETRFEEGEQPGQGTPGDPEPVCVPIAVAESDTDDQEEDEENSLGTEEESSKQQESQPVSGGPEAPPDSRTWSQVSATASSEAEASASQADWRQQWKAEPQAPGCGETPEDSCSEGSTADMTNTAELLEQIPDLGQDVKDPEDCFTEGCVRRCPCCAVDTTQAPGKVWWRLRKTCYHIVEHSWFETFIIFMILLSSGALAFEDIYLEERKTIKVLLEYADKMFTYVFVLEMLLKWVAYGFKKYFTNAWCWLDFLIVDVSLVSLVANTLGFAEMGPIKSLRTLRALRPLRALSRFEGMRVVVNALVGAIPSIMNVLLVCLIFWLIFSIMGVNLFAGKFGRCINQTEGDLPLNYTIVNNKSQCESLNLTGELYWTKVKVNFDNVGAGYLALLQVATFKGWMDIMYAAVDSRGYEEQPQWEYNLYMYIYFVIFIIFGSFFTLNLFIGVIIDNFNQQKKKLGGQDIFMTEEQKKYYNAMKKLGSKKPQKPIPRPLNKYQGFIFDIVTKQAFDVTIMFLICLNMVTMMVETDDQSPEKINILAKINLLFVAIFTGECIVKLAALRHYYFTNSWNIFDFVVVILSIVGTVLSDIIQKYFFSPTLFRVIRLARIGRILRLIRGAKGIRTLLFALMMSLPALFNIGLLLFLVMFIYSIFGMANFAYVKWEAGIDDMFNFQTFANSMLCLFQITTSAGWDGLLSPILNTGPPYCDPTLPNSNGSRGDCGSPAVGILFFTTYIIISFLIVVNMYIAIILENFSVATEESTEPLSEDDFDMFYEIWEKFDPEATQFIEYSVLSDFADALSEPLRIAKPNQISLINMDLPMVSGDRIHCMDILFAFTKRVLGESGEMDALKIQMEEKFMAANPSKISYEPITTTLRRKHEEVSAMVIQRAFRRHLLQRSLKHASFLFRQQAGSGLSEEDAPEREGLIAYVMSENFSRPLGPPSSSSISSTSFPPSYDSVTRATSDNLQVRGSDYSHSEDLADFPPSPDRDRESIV

For `CC(C)(c1ccc(O)cc1)c1ccc(O)cc1` [BPA, Bisphenol A], the “use-dependent block in F1760A compared to WT” value (F1760A mutant of hNav1.5 [1]; 30 µM) was “robustly reduced”, the Kd (hNav1.5 [2]; WT hNav1.5, Vhold −90 mV) was 25.4 ± 1.3 µM and the Kd (hNav1.5 [2]; WT hNav1.5, Vhold −120 mV) was 74 ± 7.6 µM. For the same compound, the “lowest concentration tested at which hNav1.5 currents were not affected (no effect level, NOEL)” value (hNav1.5 [2]; tonic block) was 100 nM, the “lowest concentration to have a significant effect on hNav1.5” value (hNav1.5 [2]; tonic block, Fig. 1A) was 1 µM and the “half-life in the body” value [3] was less than 6 h. For the same compound, the Kd (F1760A mutant of hNav1.5 [4]) was 104 ± 6.7 µM, the use-dependent block (hNav1.5 [5]) was “significant use-dependent block” and the use-dependent current decline (hNav1.5 [5]; all frequencies tested (1 to 100 Hz), WT hNav1.5) was “enhance use-dependent current decline”. The “τ of single exponential fit of current decay” value (hNav1.5 [6]; test pulse to −10 mV, pre 1.1±0.08 ms) was 1.13 ± 0.1 ms, the Vhalf of activation (hNav1.5 [6]; pre −32.0±2.5 mV) was −32.9±3.7 mV and the Kd (hNav1.5 [7]) was 58.6 ± 8 µM. The “mean human blood levels” value [8] was roughly 10 nM, the “highest reported blood level” value ([8]; human) was 290 nM and the “hyperpolarizing shift of Vhalf of steady-state fast inactivation” value (hNav1.5 [9]; 100 µM, n = 9) was 15.8±1.1 mV. The “slope factor k of steady-state fast inactivation” value (hNav1.5 [9]; post application of 100 µM BPA, pre 5.6±0.3) was 6.5±0.2 and the “Vhalf of steady-state fast inactivation” value (hNav1.5 [9]; post application of 100 µM BPA, pre −89.3±1.5 mV, n = 9) was −105.1±2.1 mV.
With `Cc1cccc(C)c1OCC(C)N` (centres unmarked) [mexiletine, reference compound] the “tonic and use-dependent block in F1760A compared to WT” value (F1760A mutant of hNav1.5 [1]; 150 µM) was “reduced tonic and use-dependent block”, the tonic block (hNav1.5 [2]; 30 µM, WT hNav1.5) was “almost absent” and the use-dependent block (hNav1.5 [5]) was “significant use-dependent block”.
